Test results from US20090130017A1, “Targeted short-lived drug delivery” (Searete LLC, priority 2007, published 2009).
Read-outs that look alike come from different tables or passages of the source.

Key:
[1] = in vivo; cited from earlier work
[2] = rat, in vivo; cited from earlier work
[3] = cited from earlier work
[4] = estimated blood plasma concentration of oxaliplatin in systemic therapy for colon cancer; type: in vivo, human; conditions: 85 mg per meter-squared, 145 mg total dose, 65 kg person, 5 liters of blood, assuming even distribution and constant rate of elimination
[5] = cited from earlier work; remark: listed apart in the source
[6] = IV infusion of 20 mcg/kg over 24 hours

For streptokinase, the half-life [1] is listed as “about 20 minutes”.

For tissue plasminogen activator [TPA], the circulation half-life [1] is given as “approximately 5 minutes”.

For NGF: nerve growth factor, the serum half-life [2] is given as “about 7.2 minutes”.

For `O=C(O)CCCc1ccc(N(CCCl)CCCl)cc1` [Chlorambucil, chlorambucil], the half-life ([3]; in human) is given as “about 1.5 hours”.

For `COc1cc([C@@H]2c3cc4c(cc3[C@@H](O[C@@H]3O[C@@H]5CO[C@@H](C)O[C@H]5[C@H](O)[C@H]3O)[C@H]3COC(=O)[C@H]23)OCO4)cc(OC)c1O` [etoposide], the half-life ([3]; in children) is listed as “about 3 hours”.

In the case of heparin, the half-life [1] is given as “around 1.5 hours”.

For `COc1ccc(C(CN(C)C)C2(O)CCCCC2)cc1` (centres unmarked) [venlafaxine], the half-life [1] is given as “about 5 hours”.

For `CC[C@H]1OC(=O)[C@H](C)[C@@H](O[C@H]2C[C@@](C)(OC)[C@@H](O)[C@H](C)O2)[C@H](C)[C@@H](O[C@@H]2O[C@H](C)C[C@H](N(C)C)[C@H]2O)[C@](C)(O)C[C@@H](C)C(=O)[C@H](C)[C@@H](O)[C@]1(C)O` [Erythromycin, erythromycin], the half-life [1] is listed as “approximately 1.5 hours”.

For `Nc1ncnc2c1ncn2[C@@H]1O[C@H](CO)[C@@H](O)[C@H]1O` [Adenosine, adenosine], the “half-life (in words)” value [1] is listed as “a few seconds”.

In the case of `O=C1[O][Pt]2([NH][C@@H]3CCCC[C@H]3[NH]2)[O]C1=O` [oxaliplatin], the half-life [1] is given as 10 to 25 min and the blood plasma concentration [4] is given as “approximately 3 micrograms per milliliter”.

For `N.N.O=C([O-])C1(C(=O)[O-])CCC1.[Pt+2]` [carboplatin], the half-life [1] is listed as 60 to 120 min.

B1: NEUPOGEN® (Filgrastim): colony stimulating factor product, normally used systemically (protein, chains of the INN, looked up)
chain: MTPLGPASSLPQSFLLKCLEQVRKIQGDGAALQEKLCATYKLCHPEELVLLGHSLGIPWAPLSSCPSQALQLAGCLSQLHSGLFLYQGLLQALEGISPELGPTLDTLQLDVADFATTIWQQMEELGMAPALQPTQGAMPAFASAFQRRAGGVLVASHLQSFLEVSYRVLRHLAQP
For B1, the half-life [1] is given as “about 3.5 hours”, the mean serum concentration [5, 6] is given as “approximately 48 ng/mL” and the median serum concentration [5, 6] is given as roughly 56 ng/mL. For the same molecule, the maximum serum concentration ([5]; subcutaneous administration of 3.45 mcg/kg) was 4 ng/mL and the maximum serum concentration ([5]; subcutaneous administration of 11.5 mcg/kg) was 49 ng/mL.
